The record followed here is US20070135374A1, “Composition for promoting collagen production” (OTSUKA PHARMACEUTICAL CO., LTD., priority 2003, published 2007).

Assay [1] concerns human skin fibroblasts. Put plainly: Collagen production promoting effect of AMP2Na on cultured human skin fibroblasts (PICP EIA), Test Example 1. Type of assay: cell-based. The conditions noted are these: 2 days culture, culture supernatant, FIG. 1. The method, then:
Evaluation of the collagen production promoting effect of adenosine monophosphate disodium on cultured human skin fibroblasts.
Primary-cultured human skin fibroblasts (manufactured by Kurabo Industries, Ltd.) were cultured in a 10 cm petri dish, and the cultured cells were collected in the subconfluent state and then freeze-preserved. Using the freeze-preserved cells, an evaluation of the collagen production promoting effect of adenosine monophosphate disodium (hereinafter, referred to as “AMP2Na) was conducted. In the following, the proportion of AMP2Na was based on the concentration of AMP.
1) The freeze-preserved cells were dissolved in an LSGS (Low Serum Growth Supplement)-containing liquid culture medium 106S (manufactured by Kurabo Industries, Ltd.), and the cell concentration and medium amount were adjusted to 30000 cells/100 μl. 100 μl of thus obtained cell-containing liquid was poured into each well of a test plate. […]
(§1) 4) Two days after culture initiation, the culture supernatant of each well was collected, and the amount of Procollagen type I C-peptide (PICP) was determined based on the amount of collagen in the culture supernatant using a Procollagen type I C-peptide (PIP) EIA Kit (manufactured by Takara Bio Inc.).

In assay [2] the test system is human skin fibroblasts. The assay can be described thus: Collagen production promoting effect of combined use of AMP2Na and UMP2Na on cultured human skin fibroblasts (PICP EIA), Test Example 2. Type of assay: cell-based. The method, then: 1) The freeze-preserved cells were dissolved in an LSGS (Low Serum Growth Supplement)-containing liquid culture medium 106S (manufactured by Kurabo Industries, Ltd.), and the cell concentration and medium amount were adjusted to 30000 cells/100 μl. 100 μl of thus obtained cell-containing liquid was poured into each well of a test plate.
2) AMP2Na solutions of various concentrations were prepared using a sterilized phosphate buffer solution, and then filtered through a filter, followed by sterilization. The resultants were added to a liquid medium 106S (manufactured by Kurabo Industries, Ltd.) to prepare AMP2Na-containing culture media of various concentrations (0 to 1×10^−5 w/v %).
3) Twenty four hours after injecting cells into the plate wells, it was confirmed that human fibroblasts adhered to the wells, and the medium was removed from each well. Subsequently, an AMP2Na-containing culture medium (200 μl) of one of various concentrations prepared in 2) above was added to each well. The mixtures were cultured at 37° C. under 5% CO2 for two days.
as §1
Evaluation of the collagen production promoting effect of the combined use of adenosine monophosphate disodium and uridine monophosphate disodium on cultured human skin fibroblasts.
The evaluation of the collagen production promoting effect of cultured human skin fibroblasts was conducted following the same procedure of Test Example 1 above except for using such media. In Table 1, the proportions of AMP2Na and UMP2Na were based on the concentration of AMP and UMP, respectively.

Molecules are shown by their SMILES.

For `Nc1ncnc2c1ncn2[C@@H]1O[C@H](COP(=O)([O-])[O-])[C@@H](O)[C@H]1O.[Na+].[Na+]` [AMP2Na, adenosine monophosphate disodium], the “PICP amount relative to cells cultured in the AMP-free medium” value in assay [1] (AMP2Na 1×10^−5 w/v % in medium) was “about 1.4 times”. In addition, the “PICP amount as compared with cells cultured in an AMP-free medium” value in assay [1] (AMP2Na 1×10^−8 to 1×10^−5 w/v % in medium) is “increased”. Further, the “action of promoting collagen production (PICP concentration)” value in assay [2] (AMP2Na alone 1×10^−6 w/v % (test medium 2) vs test medium 4, FIG. 2) is reported as “has an action of promoting collagen production”.

With `O=c1ccn([C@@H]2O[C@H](COP(=O)([O-])[O-])[C@@H](O)[C@H]2O)c(=O)[nH]1.[Na+].[Na+]` [UMP2Na, uridine monophosphate disodium], the “action of promoting collagen production (PICP concentration)” value in assay [2] (UMP2Na alone 1×10^−8 w/v % (test medium 3) vs test medium 4, FIG. 2) is on record as “no action of promoting collagen production”. Moreover, in assay [2] (combined use: AMP2Na 1×10^−6 w/v % + UMP2Na 1×10^−8 w/v % (test medium 1), FIG. 2), the “potentiation of the action of promoting collagen production of AMP2Na (PICP concentration)” value was “sharply potentiates”.
